Measurements as given in patent US20180325106A1, “METHOD OF RETARDING AN ETHYLENE RESPONSE” (CURTIN UNIVERSITY OF TECHNOLOGY, priority 2015, published 2018).
Read-outs that look alike come from different tables or passages of the source.

Assays:
[1] = system: 'Tegan Blue' Japanese plum fruit; experiment: Climacteric ethylene production in 'Tegan Blue' plum fruit after fumigation; type: in vivo; details: for level of climacteric ethylene, suppressed, fold in comparison to the solely ethylene treated fruit: then ethylene 10 μL L^-1 24 hr, 'Tegan Blue' plum, P≤0.05
Protocol: Mature ‘Tegan Blue’ and ‘Fortune’ Japanese plum and ‘Arctic Pride’ nectarine fruits of uniform size and maturity, free from visual blemishes and diseases were harvested in early morning from a commercial orchard in Western Australia. Following the harvest, the fruit were brought to the Horticulture Research Laboratory, Curtin University, using a temperature controlled vehicle at 20-25° C. The fruit were treated by fumigation with 0 to 100 nLL^−1 of BC and 1000 nLL^−1 of 1-MCP (Tegan Blue plum) for 18 hr at ambient conditions (20±1° C. and 65±5% RH) by using hermetically sealed plastic containers of 60 L volume. Whatman filter paper (number 2) soaked with specific concentrations of BC and 1-MCP were kept along with the fruit and 30 g of soda lime inside each container. A small battery operated fan was used to ensure equal distribution of the vapours from the chemicals. Half of the treated fruit was exposed to ethylene (10 μL L^−1) for 24 hr following BC and 1-MCP treatment.
The endogenous level of ethylene was determined by using the Sensor Sense (Sensor sense B. V, Nijmegen, The Netherlands). The Sensor Sense includes an ETD 300 ethylene detector, a set of valve controllers with an option of six valves connected to six separate cuvettes [1.0 L air-tight jar, fitted with a rubber septum (SubaSeal®, Sigma-Aldrich Co., St. Louis, USA)]. The continuous flow method was used with coarse mode (conversion factor 99818, capacity to measure ethylene concentration at 0-500 ppm, sensitivity at <1%) of analysis. Each sample was run for 20 minutes with a flow rate of 4.0 L hour^−1 and the average reading of last 15 minutes was considered to calculate the concentration of ethylene and expressed as μmol […] h^−1.
(§1) The experimental data were analysed following one-way analysis of variance (ANOVA) by using Genstat 13 (release 13.1; Lawes Agricultural Trust, Rothamsted Experimental Station, Harpenden, UK). The effects of various treatments and their interactions were assessed and least significant differences (Fisher's LSD) were calculated by F test at 5% level of significance.

[2] = gas at room temperature; background statement; cited from earlier work
[3] = system: 'Tegan Blue' Japanese plum fruit; experiment: Climacteric respiration (CO2 production) in 'Tegan Blue' plum fruit; type: in vivo
Protocol: (§2) Mature ‘Tegan Blue’ and ‘Fortune’ Japanese plum and ‘Arctic Pride’ nectarine fruits of uniform size and maturity, free from visual blemishes and diseases were harvested in early morning from a commercial orchard in Western Australia. Following the harvest, the fruit were brought to the Horticulture Research Laboratory, Curtin University, using a temperature controlled vehicle at 20-25° C. The fruit were treated by fumigation with 0 to 100 nLL^−1 of BC and 1000 nLL^−1 of 1-MCP (Tegan Blue plum) for 18 hr at ambient conditions (20±1° C. and 65±5% RH) by using hermetically sealed plastic containers of 60 L volume. […]
(§3) Respiration rate was determined as carbon dioxide (CO2) production from the fruit during ripening period a using CO2 analyser. […] The respiration rate was calculated on the basis of the peak areas of 2.0 mL gas sample and CO2 standard (8.52±0.17%) and expressed as mmoL CO2 […] h^−1.
as §1

[4] = system: WX17 wax flower; experiment: Flower/bud abscission in WX17 wax flower; type: in vivo, Chamelaucium Desf.; details: 100 nLL^-1 fumigation followed by ethylene 10 μLL^-1
Protocol: (§4) To evaluate the effects of BC and NC on flower abscission, flowering stems of Wax flower (Chamelaucium Desf.) (WX17, WX73 and WX107) were collected from mature bushes grown at Department of Agriculture and Food Western Australia (DAFWA), Perth (31° 58′ 55″ S/115° 51′ 47″ E). Collected stems were immediately placed upright in buckets with water and recut at 20-25 cm in length (from the cut end to the most extreme opened-flowers). The flower stalks were treated similarly as the fruits with BC (0-100 nLL^−1) or NC (0-100 nLL^−1) and ethylene. The experiments were laid out by following CRD design, having five replications for each treatment and five stalks in each replication. During the treatment period, the flower stalks were placed in small plastic bottles with distilled water. A cone made of nylon mesh was placed at the base of the stalks to check the number of abscised flowers. […]
as §1

[5] = system: 'Arctic Pride' nectarine fruit; experiment: Climacteric respiration (CO2 production) in 'Arctic Pride' nectarine fruit; type: in vivo
Protocol: as §2, §3, §1

[6] = system: WX73 wax flower; experiment: Flower/bud abscission in WX73 wax flower; type: in vivo, Chamelaucium Desf.
Protocol: as §4, §1

[7] = Solubility in water; type: physicochemical
[8] = system: 'Arctic Pride' nectarine fruit; experiment: Climacteric ethylene production in 'Arctic Pride' nectarine fruit after fumigation; type: in vivo; details: 50 nLL^-1 fumigation, then ethylene 10 μL L^-1
Protocol: as §2
The endogenous level of ethylene was determined by using the Sensor Sense (Sensor sense B. V, Nijmegen, The Netherlands). […] Each sample was run for 20 minutes with a flow rate of 4.0 L hour^−1 and the average reading of last 15 minutes was considered to calculate the concentration of ethylene and expressed as μmol […] h^−1.
as §1

[9] = Stability at room temperature; type: physicochemical

SMILES	level of climacteric ethylene, suppressed, fold in comparison to the solely ethylene treated fruit ([1]; 1000 nLL^-1 fumigation 18 hr) [fold]	stability [2]	climacteric respiration, suppressed, fold versus the solely ethylene treated fruit ([3]; 1000 μLL^-1 (so in the source) fumigation + ethylene) [fold]	level of climacteric ethylene, suppressed, fold in comparison to the solely ethylene treated fruit ([1]; 100 nLL^-1 fumigation 18 hr) [fold]	difference between effects of BC (100 nL L^-1) and 1-MCP (1000 nL L^-1) on climacteric ethylene and respiration ([1]; 'Tegan Blue' and 'Fortune' plum, 'Arctic Pride' nectarine, ethylene and respiration)	rate of flower/bud abscission [4] [%]	respiration climacteric, suppression, fold in comparison to the solely ethylene treated fruit ([5]; 50 nLL^-1 fumigation + ethylene) [fold]	respiration climacteric, suppression, fold in comparison to the solely ethylene treated fruit ([5]; 50 nLL^-1 fumigation, no ethylene exposure) [fold]	rate of flower/bud abscission ([6]; 50 nL L^-1 fumigation followed by ethylene) [%]	rate of flower/bud abscission ([6]; 100 nL L^-1 fumigation followed by ethylene) [%]	solubility in water [7]	level of ethylene, suppressed, fold versus the solely ethylene treated fruit [8] [fold]	climacteric respiration, suppressed, fold versus the solely ethylene treated fruit ([3]; 100 nLL^-1 fumigation + ethylene) [fold]	stability [9]
CC1=CC1 [1-MCP, 1-Methylcyclopropene, reference compound]	0.70	highly unstable	0.77											
c1ccc2c(c1)C2 [BC, benzocyclopropene]				0.80	non-significant differences	6.05	0.77	0.71	22.43	28.40	only partially soluble in water	0.63	0.83	stable at room temperature for several months
